From US20040014689A1, “Endoparaciticidal and ectoparasiticidal agents” (priority 1996, published 2004)

How the values were obtained:
Heterakis spumosa = assay: Example D: in vivo nematode test, Heterakis spumosa in mice; conditions: oral
Procedure: Heterakis spumosa in Mice
Mice were experimentally infected with nematodes of the species Heterakis spumosa. Specifically, the mice were administered Heterakis spumosa orally as 90 embryonate eggs.
After the prepatency period had expired, the suspended active compounds of Example 2 were administered orally on day 46 after the infection.
(§1) Determination of the Activity:
The mice are selected on day 54 after the infection. The adult parasites are counted in the colon and caecum using a microscope. The success of treatment in the dose group is compared to the untreated control group.

Nematospiroides dubius = assay: Use Example C: in vivo nematode test, Nematospiroides dubius in mice; conditions: oral
Procedure: Nematospiroides dubius in Mice
Mice were experimentally infected with nematodes of the species Nematospiroides dubius. Specifically, the mice were administered Nematospiroides dubius orally as 60 filariform larvae.
After the prepatency period had expired, the suspended active compounds of Example 2 were administered orally on day 12 after the infection.
as §1
The mice are selected on day 20 after the infection. The adult parasites in the Duodenum are counted by means of a compressorium. The success of treatment in the dose group is compared to the untreated control group.

[1] = ivermectin B1a/B1b 0.1 mg/kg alone

| Compound | Reduction rate [%] (Heterakis spumosa; [1]) | Reduction rate [%] (Nematospiroides dubius; [1]) | Reduction rate [%] (Heterakis spumosa; imidacloprid 5.0 mg/kg alone) | Reduction rate [%] (Heterakis spumosa; imidacloprid 10.0 mg/kg alone) | Reduction rate [%] (Heterakis spumosa; imidacloprid 25.0 mg/kg alone) | Reduction rate [%] (Heterakis spumosa; imidacloprid 50.0 mg/kg alone) | Reduction rate [%] (Nematospiroides dubius; imidacloprid 25.0 mg/kg alone) | Reduction rate [%] (Nematospiroides dubius; imidacloprid 50.0 mg/kg alone) |
| --- | --- | --- | --- | --- | --- | --- | --- | --- |
| 22,23-Dihydroavermectin B1a/B1b [Ivermectin B1a/B1b] | <50 | 0 |  |  |  |  |  |  |
| O=[N+]([O-])NC1=NCCN1Cc1ccc(Cl)nc1 [Imidacloprid, 1-[(6-chloro-3-pyridinyl)methyl]-N-nitro-2-imidazolidinium] |  |  | 0 | 0 | 0 | 0 | 0 | 0 |
